Laboratory results taken from US20260049085A1, “CYCLIC COMPOUNDS AND METHODS OF USING SAME” (SCHRÖDINGER, INC., priority 2022, published 2026).

How the values were obtained:
[1] = biological target: T1, full-length MALT1 protein His-MALT1(1-824) (Homo sapiens, UniProt Q9UDY8); assay: MALT1 protease assay (Ac-LRSR-AMC tetrapeptide substrate, fluorescence); assay type: biochemical; conditions: 1 nM MALT1, 25 μM Ac-LRSR-AMC, 2 h pre-incubation, 8 hr incubation at RT
T1 construct: full-length MALT1 protein His-MALT1(1-824); His (N); made in house; host or cells: baculovirus-infected insect cells
T1 sequence (Q9UDY8 1-824): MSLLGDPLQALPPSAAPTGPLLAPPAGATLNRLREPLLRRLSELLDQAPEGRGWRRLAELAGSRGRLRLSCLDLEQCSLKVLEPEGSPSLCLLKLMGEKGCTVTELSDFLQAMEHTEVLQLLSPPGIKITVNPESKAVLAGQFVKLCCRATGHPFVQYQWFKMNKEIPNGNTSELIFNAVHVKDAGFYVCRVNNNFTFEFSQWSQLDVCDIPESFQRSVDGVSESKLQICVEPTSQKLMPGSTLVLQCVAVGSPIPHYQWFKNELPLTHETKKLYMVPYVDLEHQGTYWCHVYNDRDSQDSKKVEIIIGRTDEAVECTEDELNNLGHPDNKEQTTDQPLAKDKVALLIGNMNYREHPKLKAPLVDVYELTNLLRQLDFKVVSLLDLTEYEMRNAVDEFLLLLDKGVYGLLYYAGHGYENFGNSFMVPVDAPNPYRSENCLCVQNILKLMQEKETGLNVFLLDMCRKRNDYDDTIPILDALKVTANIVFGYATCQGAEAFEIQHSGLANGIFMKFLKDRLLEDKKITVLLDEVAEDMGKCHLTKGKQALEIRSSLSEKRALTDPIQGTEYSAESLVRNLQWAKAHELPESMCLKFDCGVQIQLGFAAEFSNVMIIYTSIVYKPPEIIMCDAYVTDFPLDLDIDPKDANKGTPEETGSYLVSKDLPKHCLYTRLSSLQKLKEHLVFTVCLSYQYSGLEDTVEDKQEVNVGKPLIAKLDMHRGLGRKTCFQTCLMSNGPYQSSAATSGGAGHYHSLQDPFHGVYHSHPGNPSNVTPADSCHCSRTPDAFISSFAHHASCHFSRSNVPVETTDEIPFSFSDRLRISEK
Summary of the method: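 Full-length His-MALT1(1-824) from baculovirus-infected insect cells (1 nM) was pre-incubated 2 h at RT with compounds (0.1% DMSO), then 25 μM Ac-LRSR-AMC added in 50 mM Tris pH 7.5, 600 mM sodium citrate, 1 mM DTT, 1 mM EDTA, 0.05% BSA. Fluorescence (ex 355/em 460 nm) read after 8 h at RT; IC50 by non-linear regression of % remaining activity.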

[2] = system: IL10 secretion, OCI-LY10 cells; assay: Human IL10 secretion assay in OCI-LY10 cells (MSD); assay type: cell-based; conditions: 24 h incubation, relative to DMSO set as 100%, read-out: IL-10 Secretion IC50
Procedure: IL10 is one of the cytokines that are regulated via activation of NF-kB signaling. For example, in ABC-DLBCL cell lines, the activated NF-kB signaling leads to increased IL10 secretion. Inhibition of NF-kB signaling has been shown leading to decreased IL10 secretion.
OCI-LY10 cells were seeded in IMEM supplemented with 20% fetal bovine serum at 4.8×10^5 cells per 160 μL per well in 96-well V-bottom cell culture plates (coming, 3894), treated with 120 nL of 3-fold serial compound dilutions, starting at 4 mM. The final vehicle concentration was 0.075% DMSO in all wells. After a 24 h incubation, human IL-10 pre-coated plates (Meso Scale Discovery) were washed 3 times with PBST, and 50 μL culture medium was aspirated into the MSD plate and incubated at 4° C. overnight. The supernatant was then discarded, and the wells were washed 3 times with PBST. SULFO-TAG Anti-human IL-10 Antibody (50×) was diluted 50-fold according to the Meso Scale Protocol, then 25 μL of SULFO-TAG Anti-human IL-10 Antibody (1×) was added. After 2 h of incubation at RT, the supernatant was discarded, and the well was washed 3 times with PBST. 2× read buffer was added and the signal was read on an MSD Sector S600. The effect of a particular compound on IL10 secretion is shown relative to the effect of DMSO; set as 100%. IC50 values (nM) were determined using 4-parametric curve-fitting.

Compound | IC50 [1] | IC50 [2]
C[C@]1(c2ccn(C(F)F)n2)C[C@H](C(=O)Nc2cnc(-c3ncccn3)c(C(F)(F)F)c2)c2cnc3cc(F)nn3c21 (single isomer, unassigned) [Example 136] | < 0.01 µM | 0.01 to 0.1 µM
C[C@]1(c2ccn(C(F)F)n2)C[C@H](C(=O)Nc2cnc(-c3ncccn3)c(Cl)c2)c2cnc3cc(F)nn3c21 (single isomer, unassigned) [Example 140] | < 0.01 µM | 0.01 to 0.1 µM
Cn1ccc([C@@]2(C)C[C@H](C(=O)Nc3cnc(-n4nccn4)c(C(F)(F)F)c3)c3cnc4cc(F)nn4c32)n1 (single isomer, unassigned) [Example 144] | < 0.01 µM | 0.1 to 1 µM
C[C@]1(c2cnn(C(F)F)c2)C[C@H](C(=O)Nc2cnc(-c3ncccn3)c(C(F)(F)F)c2)c2cnc3cc(F)nn3c21 (single isomer, unassigned) [Example 148] | 0.01 to 0.1 µM | 0.1 to 1 µM
